Biological target: T1, recombinant hGYS1/GN1 protein (Homo sapiens, UniProt P13807)
T1 sequence (P13807 1-737): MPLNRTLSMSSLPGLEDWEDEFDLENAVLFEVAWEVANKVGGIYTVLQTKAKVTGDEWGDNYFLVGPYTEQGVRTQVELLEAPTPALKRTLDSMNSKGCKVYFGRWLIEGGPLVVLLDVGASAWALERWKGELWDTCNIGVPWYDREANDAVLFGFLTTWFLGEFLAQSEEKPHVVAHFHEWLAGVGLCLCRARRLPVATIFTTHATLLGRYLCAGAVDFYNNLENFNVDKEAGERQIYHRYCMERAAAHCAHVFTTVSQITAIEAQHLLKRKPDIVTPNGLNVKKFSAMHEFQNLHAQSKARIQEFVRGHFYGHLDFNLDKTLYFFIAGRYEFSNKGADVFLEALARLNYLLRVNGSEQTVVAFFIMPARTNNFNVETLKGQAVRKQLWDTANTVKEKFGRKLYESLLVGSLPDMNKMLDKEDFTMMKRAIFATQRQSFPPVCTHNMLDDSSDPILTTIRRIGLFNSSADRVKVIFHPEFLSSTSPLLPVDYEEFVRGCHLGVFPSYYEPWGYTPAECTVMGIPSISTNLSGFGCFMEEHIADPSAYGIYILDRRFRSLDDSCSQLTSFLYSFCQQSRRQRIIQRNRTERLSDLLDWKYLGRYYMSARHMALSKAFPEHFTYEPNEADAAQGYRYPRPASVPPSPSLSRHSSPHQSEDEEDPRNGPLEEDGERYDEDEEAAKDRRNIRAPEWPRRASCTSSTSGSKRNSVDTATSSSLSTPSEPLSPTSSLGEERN
T1 sequence (P46976 1-350 partner): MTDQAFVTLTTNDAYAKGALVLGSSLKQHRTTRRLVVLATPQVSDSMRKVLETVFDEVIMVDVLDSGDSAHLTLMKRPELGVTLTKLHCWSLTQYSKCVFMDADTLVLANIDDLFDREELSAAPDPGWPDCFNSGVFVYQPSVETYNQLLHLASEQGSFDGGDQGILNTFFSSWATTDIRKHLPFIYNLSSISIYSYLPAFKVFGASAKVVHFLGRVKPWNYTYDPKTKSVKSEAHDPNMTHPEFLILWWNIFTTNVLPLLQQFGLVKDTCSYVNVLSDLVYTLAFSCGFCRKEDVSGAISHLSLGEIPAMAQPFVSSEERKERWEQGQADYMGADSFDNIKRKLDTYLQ
Experiment: GYS1 coupled enzyme assay (PK/LDH, NADH absorbance at 340 nm)
Format: biochemical
Conditions: geometric mean of at least 2 assay runs on separate days; hGYS1/GN1 50 nM, Glucose-6-Phosphate 1 mM, UDP-Glucose 0.8 mM
Description: The GYS1 coupled enzyme assay is a kinetic biochemical assay that indirectly quantifies the rate of glycogen synthesis by coupling the conversion of GYS1 substrate UDP-glucose into UDP with downstream enzymatic reactions. UDP is released from UDP-glucose as glucose monomers are linked into the growing glycogen strand by GYS1. The coupled assay then proceeds with pyruvate kinase utilizing UDP and phospho(enol)pyruvate (PEP) to form pyruvate. Lactate dehydrogenase then converts pyruvate and NADH into lactate and NAD+. Oxidation of NADH to NAD+ can be measured continuously with a plate reader by quantifying the decrease in NADH absorbance at 340 nm over time.
Compounds that inhibit the hGYS1 enzyme and, subsequently, the downstream conversion of NADH to NAD+, were tested using assay ready plates (black, clear bottom 384 well plates) in a final DMSO reaction volume of 2.5% DMSO. The Assay Buffer contained 50 mM Tris pH 7.5, 2 mM MgCl2, and 100 mM KCl. Fresh stocks of BSA at a final concentration of 0.02% and TCEP at 1 mM were added before splitting buffer into hGYS1 buffer and substrate buffer. To the hGYS1 buffer, rabbit liver glycogen was added at a final concentration of 0.2% glycogen. Glucose-6-Phosphate was added at 1 mM, recombinant hGYS1/GN1 protein was added at 50 nM to the substrate buffer, phosphoenolpyruvate (PEP) was added at 2 mM, UDP-Glucose was added at 0.8 mM, NADH) was added at 0.6 mM, and Pyruvate Kinase/Lactate Dehydrogenase was added at 20 units/mL. The reaction was initiated by mixing hGYS1 buffer and substrate buffer at a 1:1 ratio. Both buffers were plated using a liquid dispensing device with hGYS1 buffer plated first followed by the substrate buffer. Plates were spun briefly to eliminate air bubbles and are immediately read in continuous mode at an absorbance of 340 nm, for 10 time points in one-minute increments, for a total of 10 minutes. The slope from these 10 time points was normalized to the positive and negative control wells. The duplicate % inhibition values are then averaged and fit to a Hill equation for dose response according to the Levenberg-Marquardt algorithm with the Hill equation maximum set to 100 and the minimum set to 0.
The results are shown in Table 2 below, which reports the IC50 of each compound. Unless otherwise specified, IC50 values are reported as the geometric mean of at least 2 assay runs on separate days. Each run represents the average of a technical replicate, where each compound was assayed twice in the same plate. As shown in the table below, the compounds of the present invention are potent inhibitors of human GYS1. A superscript “#” symbol in Table 2 indicates results from a single assay run.
Note that, in Table 2, the compounds are referred to by the corresponding Compound No. in Table 1, which is also referred to in the synthetic examples.

SMILES | IC50
O=C(N[C@@H](c1ccccc1)c1ccc(C2CC2)c(F)n1)[C@@H]1C[C@@H](F)CN1C(=O)COCCOCCOCCOCCOCCOCC(=O)N1C[C@H](F)C[C@H]1C(=O)N[C@@H](c1ccccc1)c1ccc(C2CC2)c(F)n1 [Compound 5, (2S,2′S,4R,4′R)-1,1′-(3,6,9,12,15,18-hexaoxaicosanedioyl)bis(N-((S)-(5-cyclopropyl-6-fluoropyridin-2-yl)(phenyl)methyl)-4-fluoropyrrolidine-2-carboxamide)] | 5.4 nM
O=C(N[C@@H](c1ccccc1)c1ccc(C2CC2)c(F)n1)[C@@H]1C[C@@H](F)CN1C(=O)COCCOCCOCCOCC(=O)N1C[C@H](F)C[C@H]1C(=O)N[C@@H](c1ccccc1)c1ccc(C2CC2)c(F)n1 [Compound 11, (2S,2′S,4R,4′R)-1,1′-(3,6,9,12-tetraoxatetradecanedioyl)bis(N-((S)-(5-cyclopropyl-6-fluoropyridin-2-yl)(phenyl)methyl)-4-fluoropyrrolidine-2-carboxamide)] | 14.6 nM
O=C(N[C@@H](c1ccccc1)c1ccc(C2CC2)c(F)n1)[C@@H]1C[C@@H](F)CN1C(=O)Cn1cc(COCCOc2cn(CC(=O)N3C[C@H](F)C[C@H]3C(=O)N[C@@H](c3ccccc3)c3ccc(C4CC4)c(F)n3)nn2)nn1 [Compound 8, (2S,4R)-N-((S)-(5-cyclopropyl-6-fluoropyridin-2-yl)(phenyl)methyl)-1-(2-(4-(2-((1-(2-((2S,4R)-2-(((S)-(5-cyclopropyl-6-fluoropyridin-2-yl)(phenyl)methyl)carbamoyl)-4-fluoropyrrolidin-1-yl)-2-oxoethyl)-1H-1,2,3-triazol-4-yl)methoxy)ethoxy)-1H-1,2,3-triazol-1-yl)acetyl)-4-fluoropyrrolidine-2-carboxamide] | 5.2 nM
O=C(N[C@@H](c1ccccc1)c1ccc(C2CC2)c(F)n1)[C@@H]1C[C@@H](F)CN1C(=O)COCCOCC(=O)N1C[C@H](F)C[C@H]1C(=O)N[C@@H](c1ccccc1)c1ccc(C2CC2)c(F)n1 [Compound 4, (2S,2′S,4R,4′R)-1,1′-(2,2′-(ethane-1,2-diylbis(oxy))bis(acetyl))bis(N-((S)-(5-cyclopropyl-6-fluoropyridin-2-yl)(phenyl)methyl)-4-fluoropyrrolidine-2-carboxamide)] | 8910 nM
O=C(N[C@@H](c1ccccc1)c1ccc(C2CC2)c(F)n1)[C@@H]1C[C@@H](F)CN1C(=O)COCCOCCOCC(=O)N1C[C@H](F)C[C@H]1C(=O)N[C@@H](c1ccccc1)c1ccc(C2CC2)c(F)n1 [Compound 12, (2S,2′S,4R,4′R)-1,1′-(2,2′-((oxybis(ethane-2,1-diyl))bis(oxy))bis(acetyl))bis(N-((S)-(5-cyclopropyl-6-fluoropyridin-2-yl)(phenyl)methyl)-4-fluoropyrrolidine-2-carboxamide)] | 82.1 nM
O=C(N[C@@H](c1ccccc1)c1ccc(C2CC2)c(F)n1)[C@@H]1C[C@@H](F)CN1C(=O)COCCOCCOCCOCCOCCOCCOCC(=O)N1C[C@H](F)C[C@H]1C(=O)N[C@@H](c1ccccc1)c1ccc(C2CC2)c(F)n1 [Compound 2, (2S,2′S,4R,4′R)-1,1′-(3,6,9,12,15,18,21-heptaoxatricosanedioyl)bis(N-((S)-(5-cyclopropyl-6-fluoropyridin-2-yl)(phenyl)methyl)-4-fluoropyrrolidine-2-carboxamide)] | 5.6 nM

The remaining lines, values ahead:

IC50 | SMILES
7.5 nM | CN(CCOCCOCCOCC(=O)N1C[C@H](F)C[C@H]1C(=O)N[C@@H](c1ccccc1)c1ccc(C2CC2)c(F)n1)CCOCCOCC(=O)N1C[C@H](F)C[C@H]1C(=O)N[C@@H](c1ccccc1)c1ccc(C2CC2)c(F)n1 [Compound 17, (2S,2′S,4R,4′R)-1,1′-(9-methyl-3,6,12,15,18-pentaoxa-9-azaicosanedioyl)bis(N-((S)-(5-cyclopropyl-6-fluoropyridin-2-yl)(phenyl)methyl)-4-fluoropyrrolidine-2-carboxamide)]
20.1 nM | O=C(N[C@@H](c1ccccc1)c1ccc(C2CC2)c(F)n1)[C@@H]1C[C@@H](F)CN1C(=O)Cn1cc(OCCOc2cn(CC(=O)N3C[C@H](F)C[C@H]3C(=O)N[C@@H](c3ccccc3)c3ccc(C4CC4)c(F)n3)nn2)nn1 [Compound 9, (2S,2′S,4R,4′R)-1,1′-(2,2′-((ethane-1,2-diylbis(oxy))bis(1H-1,2,3-triazole-4,1-diyl))bis(acetyl))bis(N-((S)-(5-cyclopropyl-6-fluoropyridin-2-yl)(phenyl)methyl)-4-fluoropyrrolidine-2-carboxamide)]
4.9 nM | Cc1cn(CC(=O)N2C[C@H](F)C[C@H]2C(=O)N[C@@H](c2ccccc2)c2ccc(C3CC3)c(F)n2)c(=O)n(CCOCCn2c(=O)c(C)cn(CC(=O)N3C[C@H](F)C[C@H]3C(=O)N[C@@H](c3ccccc3)c3ccc(C4CC4)c(F)n3)c2=O)c1=O [Compound 14, (2S,2′S,4R,4′R)-1,1′-(2,2′-((oxybis(ethane-2,1-diyl))bis(5-methyl-2,4-dioxo-3,4-dihydropyrimidine-3,1(2H)-diyl))bis(acetyl))bis(N-((S)-(5-cyclopropyl-6-fluoropyridin-2-yl)(phenyl)methyl)-4-fluoropyrrolidine-2-carboxamide)]
5710 nM | O=C(COCCOCCOCCOCCOCCOCCOCCOCCOCCOCCOCCOCC(=O)N[C@@H](c1ccccc1)c1ccc(C2CC2)c(F)n1)N[C@@H](c1ccccc1)c1ccc(C2CC2)c(F)n1 [Compound 3, N^1,N^38-bis((S)-(5-cyclopropyl-6-fluoropyridin-2-yl)(phenyl)methyl)-3,6,9,12,15,18,21,24,27,30,33,36-dodecaoxaoctatriacontanediamide]
14.4 nM | O=C(N[C@@H](c1ccccc1)c1ccc(C2CC2)c(F)n1)[C@@H]1C[C@@H](F)CN1C(=O)COCCOCCOCCOCCOCC(=O)N1C[C@H](F)C[C@H]1C(=O)N[C@@H](c1ccccc1)c1ccc(C2CC2)c(F)n1 [Compound 10, (2S,2′S,4R,4′R)-1,1′-(3,6,9,12,15-pentaoxaheptadecanedioyl)bis(N-((S)-(5-cyclopropyl-6-fluoropyridin-2-yl)(phenyl)methyl)-4-fluoropyrrolidine-2-carboxamide)]
11.2 nM | O=C(N[C@@H](c1ccccc1)c1ccc(C2CC2)c(F)n1)[C@@H]1C[C@@H](F)CN1C(=O)Cn1cc(COCCOCc2cn(CC(=O)N3C[C@H](F)C[C@H]3C(=O)N[C@@H](c3ccccc3)c3ccc(C4CC4)c(F)n3)nn2)nn1 [Compound 7, (2S,2′S,4R,4′R)-1,1′-(2,2′-(((ethane-1,2-diylbis(oxy))bis(methylene))bis(1H-1,2,3-triazole-4,1-diyl))bis(acetyl))bis(N-((S)-(5-cyclopropyl-6-fluoropyridin-2-yl)(phenyl)methyl)-4-fluoropyrrolidine-2-carboxamide)]

— patent publication US20260098025A1, “DIMERIC COMPOUNDS AS INHIBITORS OF GLYCOGEN SYNTHASE 1 (GYS1) AND METHODS OF USE THEREOF” (Maze Therapeutics, Inc., priority 2022, published 2026)
